Measurements: patent US12458578B2, “Composition for inhibiting plaque formation” (SUNSTAR SUISSE SA, priority 2020, dated 2025)

Tested on: Fusobacterium (Fusobacterium nucleatum subsp. nucleatum ATCC23726 and ATCC25586)
Test: Study of sterilization effect of quaternary ammonium salt sterilizer liquids (in water) on Fusobacterium, viable count after 30 seconds
Format: cell-based
Conditions: for sterilization effect on Fusobacterium (number of viable bacteria): component used singly as sterilizer liquid in water, 0.01-0.10%, 30 seconds contact
Description: The alkylpyridinium chlorides and benzyl alkyl dimethyl ammonium chlorides shown below were dissolved in water such that each component had each concentration (0.01%, 0.02%, 0.03%, 0.04%, 0.05%, 0.07%, or 0.10%), and the resulting products were used as sterilizer liquids. In the sterilizer liquids, the components were used singly or in combination. The concentration (%) of an alkylpyridinium chloride in the sterilizer liquids is expressed as w/v %; however, since the solvent is water, and the concentrations are relatively low, the value is almost the same as the value expressed as mass % (w/w %) and can be approximated. • Octylpyridinium chloride (OPC): R=(CH2)7CH3 in the following formula • Dodecylpyridnium chloride (DPC): R=(CH2)11CH3 in the following formula • Cetylpyridinium chloride (CPC): R=(CH2)15CH3 in the following formula
For test bacteria, the following two subspecies of Fusobacterium were used. • Bacteria 1: Fusobacterium nucleatum subsp. nucleatum ATCC23726 • Bacteria 2: Fusobacterium nucleatum subsp. nucleatum ATCC25586
The test bacteria were individually inoculated into 10 ml of GAM bouillon medium (Nissui Pharmaceutical Co., Ltd.) and incubated anaerobically at 37° C. for 2 days. The resulting culture media were used as test bacteria liquids.
The sterilizer liquids (200 μl) at different concentrations were each mixed with the test bacteria liquids (200 μl). Thirty seconds after the mixing, 100 μl of the mixture was collected, and 900 μl of drug inactivation PBS in which soy lecithin and Tween 80 were added to a final concentration of 0.07% and 0.5%, respectively, to phosphate-buffered saline (PBS) was added (the mixture was diluted 10-fold) to inactivate the sterilization properties of the sterilizers. Each mixture was serially diluted 10^1- to 10^7-fold with the drug inactivation PBS (serially diluted mixers).
100 μl each of the prepared serially diluted mixers was smeared on sheep blood agar media for CDC anaerobes (Becton, Dickinson and Company), cultured anaerobically at 37° C. for 3 days, and the number of viable bacteria was counted.
FIGS. 1, 2, and 3 show the results. In the graphs of these figures, the vertical axis represents log (the number of viable bacteria) CFU/ml, with the detection limit of this value being 2.
The concentrations of CPC, DPC, OPC, BKC12, BKC14, and BKC16 in these figures and the following figures represent the concentrations of these components prepared as sterilizer liquids.

| SMILES | sterilization effect on Fusobacterium (number of viable bacteria) | further results |
| --- | --- | --- |
| CCCCCCCCCCCC[N+](C)(C)Cc1ccccc1.[Cl-] [BKC12, Benzyl dodecyl dimethyl ammonium chloride] | showed a sterilization effect on Fusobacterium even at a relatively low concentration | – |
| CCCCCCCCCCCCCC[N+](C)(C)Cc1ccccc1.[Cl-] [BKC14, Benzyl tetradecyl dimethyl ammonium chloride] | showed a sterilization effect on Fusobacterium even at a relatively low concentration | – |
| CCCCCCCCCCCCCCCC[N+](C)(C)Cc1ccccc1.[Cl-] [BKC16, Benzyl hexadecyl dimethyl ammonium chloride] | did not show a sterilization effect on Fusobacterium | – |
| CCCCCCCCCCCCCCCC[n+]1ccccc1.[Cl-] [CPC, Cetylpyridinium chloride] | did not show a sterilization effect on Fusobacterium | enhancement of the sterilization effect of BKC12 on Fusobacterium (CPC combined with BKC12 in the sterilizer liquid): enhanced the sterilization effect of BKC14 or BKC12 on Fusobacterium; enhancement of the sterilization effect of BKC14 on Fusobacterium (CPC combined with BKC14 in the sterilizer liquid): enhanced the sterilization effect of BKC14 or BKC12 on Fusobacterium; enhancement of the sterilization effect of DPC on Fusobacterium (CPC combined with DPC in the sterilizer liquid): enhanced the sterilization effect of DPC on Fusobacterium; enhancement of the sterilization effect of a quaternary ammonium salt having a C10 to C14 alkyl group on Fusobacterium (cetylpyridinium chloride combined with the quaternary ammonium salt): exhibits an effect of enhancing the sterilization effect of a quaternary ammonium salt having a C10 to C14 alkyl group on Fusobacterium; sterilization effect on Fusobacterium (number of viable bacteria) (listed as Cetylpyridinium chloride): an efficient sterilization effect on Fusobacterium was not observed; sterilization effect on Fusobacterium (number of viable bacteria) (listed as cetylpyridinium chloride): does not produce an efficient sterilization effect on Fusobacterium |
| CCCCCCCCCCCC[n+]1ccccc1.[Cl-] [DPC, Dodecylpyridnium chloride] | showed a sterilization effect on Fusobacterium even at a relatively low concentration | – |
| CCCCCCCC[n+]1ccccc1.[Cl-] [OPC, Octylpyridinium chloride] | did not show a sterilization effect on Fusobacterium | – |
